Results reported in patent US20260124183A1, “METHODS OF TREATING SPINOCEREBELLAR ATAXIAS” (Biohaven Therapeutics Ltd., priority 2022, published 2026).
Structures can show the parent of a compound that is named as a salt.

Columns and labels:
[1] = Solubility of drug substance in water; type: physicochemical
[2] = test system: spinocerebellar ataxia (SCA); assay: Phase 3 clinical study: adverse events of fall, safety and tolerability; type: in vivo, human
Protocol: (§1) The purpose of this study is to compare the efficacy of Troriluzole (200 mg once daily) versus placebo after 48 weeks of treatment in subjects with spinocerebellar ataxia (SCA).
(§2) • Study Type: Interventional (Clinical Trial) • Actual Enrollment: 218 participants • Allocation: Randomized • Intervention Model: Parallel Assignment • Masking: Triple (Participant, Care Provider, Investigator) • Primary Purpose: Treatment • Official Title: A Phase III, Long-Term, Randomized, Double-blind, Placebo-controlled Trial of Troriluzole in Adult Subjects With Spinocerebellar Ataxia.
(§3) • Arm • Experimental: Arm 1: BHV-4157 • Troriluzole 200 mg by mouth • Placebo Comparator: Arm 2: Placebo • Placebo 200 mg by mouth • Intervention/Treatment • Drug: troriluzole • 200 mg by mouth • Drug: placebo • 200 mg by mouth
• 1. Change from baseline in Patient Impression of Function and Activities of Daily Living Scale (PIFAS) score at Randomization Phase Week 48. [Time Frame: Baseline to week 48] • An increase in the total score indicates a worsening of symptoms. • 2. Change from baseline in Activities of Daily Living Scale from the Friedreich's Ataxia Rating Scale (FARS-ADL) at Randomization Week 48. [Time Frame: Baseline to week 48] • An increase in the total score indicates a worsening of symptoms. • 3. Change from baseline in Functional Staging for Ataxia from the Friedreich's Ataxia Rating Scale (FARS-FUNC) at Randomization Phase Week 48. [Time Frame: Baseline to week 48] • An increase in the total score indicates a worsening of symptoms. • 4. Frequency of subjects with the following adverse events (AEs) identified from case report forms: AEs (by severity; by relationship to study drug; overall); SAEs; and AEs leading to treatment discontinuation. [Time Frame: Baseline to week 48]

[3] = test system: spinocerebellar ataxia (SCA); assay: Phase 3 clinical study of troriluzole in spinocerebellar ataxia: f-SARA total score change; type: in vivo, human; conditions: for LS mean change difference in f-SARA score from baseline vs placebo: Week 48, 200 mg daily
Protocol: Phase 3 Clinical Study for Troriluzole in Adult Subjects with Spinocerebellar Ataxia
as §1, §2, §3
• 1. Change from Baseline in the total score of the Modified Functional Scale for the Assessment and Rating of Ataxia (f-SARA) after 48 weeks of treatment. [Time Frame: Baseline to week 48] • An increase in the total score indicates a worsening of symptoms.
• 1. Subjects with a known or suspected diagnosis of the following specific hereditary ataxias: SCA1, SCA2, SCA3, SCA6, SCA7, SCA8 and SCA10; currently only enrolling SCA 1, SCA2, SCA3, SCA7, and SCA10 (the cap has been met for SCA6 and SCA8 (on May 31, 2019)); • a. A subject should have a confirmed genotypic diagnosis from a CLIA certified lab (can produce test results); or • b. A subject has a family member that has a confirmed genotypic diagnosis from a CLIA certified lab (can produce test results) and must be willing to undergo genetic testing to confirm underlying SCA diagnosis; or • c. A subject has a confirmed genotypic diagnosis from a lab that is not CLIA certified and must be willing to undergo genetic testing to confirm underlying SCA diagnosis; or • d. […] Ability to ambulate 8 meters without human assistance (canes and other devices allowed). • 3. Screening f-SARA total score ≥3. • 4. Score of ≥1 on gait subsection of the f-SARA. • 5. Determined by the investigator to be medically stable at Baseline/randomization as assessed by medical history, physical examination, laboratory test results, and electrocardiogram testing.
• 1. A ≥2-point difference on the Modified Functional SARA score between screening and baseline. • 2. MMSE score <24. • 3. […] A prominent spasticity or dystonia that, in the opinion of the investigator, will compromise the ability of the SARA instrument to assess underlying ataxia severity. • 5. A score of 4 on any individual item (Items 1-4) of the f-SARA. • 6. Subjects should be excluded at screening or baseline if medical conditions have arisen or there is a change in disease status that could confound the ability of the SARA to accurately reflect changes in ataxia severity. • 7. Active liver disease or a history of hepatic intolerance to medications that in the investigator's judgment, is medically significant.

CN(CC(=O)Nc1nc2ccc(OC(F)(F)F)cc2s1)C(=O)CNC(=O)CN [troriluzole, 2-amino-N-({methyl-[(6-trifluoromethoxy-benzothiazol-2-ylcarbamoyl)-methyl]-carbamoyl}-methyl)-acetamide monohydrate monohydrochloride]
solubility in water [1]: freely soluble in water | reduction of fall risk versus placebo ([2]; SCA3 genotype, patient reported falls as adverse events, nominal p=0.04): approximately 50% | AE incidence of falls ([2]; SCA3 genotype, placebo 32%): 16% | reduction of fall risk versus placebo ([2]; all genotypes, patients able to ambulate at baseline (f-SARA Gait Item score=1), nominal p=0.043): approximately 59% | AE incidence of falls ([2]; all genotypes, patients able to ambulate at baseline (f-SARA Gait Item score=1), placebo 23%): 10% | safety and tolerability profile ([2]; overall, Phase 3 study): favorable safety and tolerability profile | LS mean change difference compared to placebo ([3]; SCA3 patient able to walk without assistance at baseline, week 4, 200 mg daily): at least −0.67 | LS mean change difference compared to placebo ([3]; SCA3 patient, week 4, 200 mg daily): at least −0.46 | LS mean change difference compared to placebo ([3]; SCA3 patient, week 8, 200 mg daily (first statement)): at least −0.12 | LS mean change difference compared to placebo ([3]; SCA3 patient, week 8, 200 mg daily (subgroup not given)): at least −0.33 | LS mean change difference compared to placebo ([3]; SCA3 patient, week 12, 200 mg daily (first statement)): at least −0.46 | LS mean change difference compared to placebo ([3]; SCA3 patient, week 12, 200 mg daily (subgroup not given)): at least −0.71 | LS mean change difference compared to placebo ([3]; SCA3 patient, week 24, 200 mg daily (first statement)): at least −0.17 | LS mean change difference compared to placebo ([3]; SCA3 patient, week 24, 200 mg daily (subgroup not given)): at least −0.40 | LS mean change difference compared to placebo ([3]; SCA3 patient, week 36, 200 mg daily (first statement)): at least −0.72 | LS mean change difference compared to placebo ([3]; SCA3 patient, week 36, 200 mg daily (subgroup not given)): at least −0.55 | LS mean change difference in f-SARA score from baseline vs placebo ([3]; SCA3 patients able to walk without assistance at baseline (f-SARA Gait Item score=1), nominal p=0.031, 95% CI −1.36, −0.07): −0.71 | LS mean change difference in f-SARA score from baseline vs placebo ([3]; SCA3 subgroup, nominal p=0.053, 95% CI −1.12, 0.01, post-hoc): −0.55 | primary endpoint, change from baseline to Week 48 on f-SARA (statistical outcome) ([3]; overall SCA population, 200 mg once daily vs placebo, 48 weeks, p=0.76): did not reach statistical significance | f-SARA score at the 48-week endpoint ([3]; overall study population N=213, mean baseline score 4.9, 200 mg once daily, placebo 5.2): 5.1
